Results as given in patent US3985875A, “ω-(N-acylamino)alkylphosphoryl ethanolamines, pharmaceutical compositions containing them, and their uses” (Dainippon Pharmaceutical Co., Ltd., priority 1974, dated 1976).

Key:
Renin = molecular target: T1, Renin (Homo sapiens, UniProt P00797); assay: Renin-inhibitory activity, Method I (inhibition of Angiotensin I formation, RIA); format: biochemical; settings: Table 2; 37°C, 4 hours, 1.25 mg/ml; read-out: Rate of inhibiting the formation of Angiotensin I determined by Method I
T1 sequence (P00797 67-406): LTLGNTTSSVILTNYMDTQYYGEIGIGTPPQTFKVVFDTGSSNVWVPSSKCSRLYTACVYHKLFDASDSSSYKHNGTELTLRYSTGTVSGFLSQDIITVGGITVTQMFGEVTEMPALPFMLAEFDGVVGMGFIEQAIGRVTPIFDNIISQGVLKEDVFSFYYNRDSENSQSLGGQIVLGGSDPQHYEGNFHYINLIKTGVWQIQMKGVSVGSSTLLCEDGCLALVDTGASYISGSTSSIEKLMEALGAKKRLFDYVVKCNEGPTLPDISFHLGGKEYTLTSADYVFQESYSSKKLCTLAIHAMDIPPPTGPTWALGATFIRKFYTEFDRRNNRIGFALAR
Procedure: Renin (see E. Haas et al. Circulation Research, Vol. 19, p. 739, 1966 and Vol. 31, p. 65, 1972) was incubated in Angiotensinogen at 37° C. for 2 to 6 hours. Similarly, renin was incubated under the same conditions in the presence of 0.313 to 2.5 mg/ml. of each of the test compounds listed above. The amount of Angiotensin I was measured by radioimmunoassay (RIA) (E. Haber et al., J. Clin. Endocrinol., Vol. 29, p. 1349, 1969), and made the renin activity.
(§1) The results are shown in Table 1 (the rate of inhibiting the formation of Angiotensin I, as determined by Method I, when the plasma was incubated at 37° C. for 2, 4 and 6 hours respectively), and Table 2 (the rate of inhibiting the formation of Angiotensin I when the plasma was incubated at 37° C. for 4 hours, with the compound concentration of 1.25 mg/ml.)

High renin plasma = molecular target: T2, High renin plasma (Canis lupus familiaris, UniProt Q6DYE7); assay: Renin-inhibitory activity, Method II (high renin plasma of dog, inhibition of Angiotensin I formation); format: biochemical; settings: Table 2; 37°C, 4 hours, 1.25 mg/ml; read-out: Rate of inhibiting the formation of Angiotensin I determined by Method II
T2 construct: High renin plasma prepared by constriction of the renal artery of a dog anesthetized with Nembutal; from tissue; host or cells: plasma of a dog with constricted renal artery
T2 sequence (Q6DYE7 66-403): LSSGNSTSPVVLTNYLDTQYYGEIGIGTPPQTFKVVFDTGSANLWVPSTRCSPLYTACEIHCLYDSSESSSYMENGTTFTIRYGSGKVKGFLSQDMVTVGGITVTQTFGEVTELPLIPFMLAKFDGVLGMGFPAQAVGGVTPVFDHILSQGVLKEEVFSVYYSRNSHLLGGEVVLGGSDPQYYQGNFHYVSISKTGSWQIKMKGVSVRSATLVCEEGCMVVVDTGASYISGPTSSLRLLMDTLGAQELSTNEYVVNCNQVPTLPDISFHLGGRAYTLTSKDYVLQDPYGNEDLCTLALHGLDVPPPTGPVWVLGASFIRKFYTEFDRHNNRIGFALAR
Procedure: High renin plasma prepared by constriction of the renal artery of a dog anesthetized with Nembutal (the plasma which when incubated at 37°40 C. for 6 hours, yields 30 to […]. of Angiotensin I) was incubated at 37° C. for 2 to 6 hours in the same way as in Method I, and also under the same conditions in the presence of 1.25 mg/ml. of each of the test compounds.
as §1

renal hypertensive rats [1] = assay: Antihypertensive activity in renal hypertensive rats, i.m. (Table 3); format: in vivo, rat; settings: 30 mg/kg/day i.m.
Procedure: (§2) An aqueous solution or suspension in peanut oil of each test compound as administered intramuscularly (i.m.) or orally (p.o.) at a dose of 30 to 100 mg/kg (body weight)/day once every morning over the period of 6 to 7 days.
(§3) The blood pressure of each rat was measured daily before and 5 hours after each administration. Furthermore, the blood pressure was measured every morning after drug withdrawal over a period of 3 to 6 days.
(§4) Test compounds (1)-(4) decreased the blood pressure of renal hypertensive rats with a dose of 30 mg/kg/day i.m.. […] The antihypertensive rats with a dose of 100 mg/kg/day p.o..

renal hypertensive rats [2] = assay: Antihypertensive activity in rats, p.o. (Table 4); format: in vivo, rat; settings: 100 mg/kg/day p.o.
Procedure: as §2, §3, §4

[3] = 1st day, 0 h (immediately before administration)
[4] = 1st day, 5 hours after administration
[5] = 2nd day, 0 h (immediately before administration)
[6] = 2nd day, 5 hours after administration
[7] = 3rd day, 0 h (immediately before administration)
[8] = 3rd day, 5 hours after administration
[9] = 4th day, 0 h (immediately before administration)
[10] = 4th day, 5 hours after administration
[11] = 5th day, 0 h (immediately before administration)
[12] = 5th day, 5 hours after administration
[13] = 6th day, 0 h (immediately before administration)
[14] = 6th day, 5 hours after administration
[15] = 7th day, 0 h (immediately before administration)
[16] = 7th day, 5 hours after administration

| Structure (SMILES) | inhibition at 1250 µg/mL (Renin) [%] | inhibition at 1250 µg/mL (High renin plasma) [%] | Changes of blood pressure after drug withdrawal (renal hypertensive rats [1]; 1st day after withdrawal) [mmHg] | Changes of blood pressure (renal hypertensive rats [1]; [3]) [mmHg] | Changes of blood pressure (renal hypertensive rats [1]; [4]) [mmHg] | Changes of blood pressure after drug withdrawal (renal hypertensive rats [1]; 2nd day after withdrawal) [mmHg] | Changes of blood pressure (renal hypertensive rats [1]; [5]) [mmHg] | Changes of blood pressure (renal hypertensive rats [1]; [6]) [mmHg] | Changes of blood pressure after drug withdrawal (renal hypertensive rats [1]; 3rd day after withdrawal) [mmHg] | Changes of blood pressure (renal hypertensive rats [1]; [7]) [mmHg] | Changes of blood pressure (renal hypertensive rats [1]; [8]) [mmHg] | Changes of blood pressure (renal hypertensive rats [1]; [9]) [mmHg] | Changes of blood pressure (renal hypertensive rats [1]; [10]) [mmHg] | Changes of blood pressure (renal hypertensive rats [1]; [11]) [mmHg] | Changes of blood pressure (renal hypertensive rats [1]; [12]) [mmHg] | Changes of blood pressure (renal hypertensive rats [1]; [13]) [mmHg] | Changes of blood pressure (renal hypertensive rats [1]; [14]) [mmHg] | Changes of blood pressure after drug withdrawal (renal hypertensive rats [2]; 1st day after withdrawal) [mmHg] | Changes of blood pressure (renal hypertensive rats [2]; [3]) [mmHg] | Changes of blood pressure (renal hypertensive rats [2]; [4]) | also measured |
| --- | --- | --- | --- | --- | --- | --- | --- | --- | --- | --- | --- | --- | --- | --- | --- | --- | --- | --- | --- | --- | --- |
| CCCCCC=CCC=CCCCCCCCC(=O)NCCCOP(=O)(O)OCCN [(4), 3-(Octadeca-9,12-dienoylamino)propylphosphoryl ethanolamine] | 29 | 24 | -29 | 0 | -15 | -12 | -7 | -20 | -2 | -12 | -27 | -22 | -37 | -28 | -41 | -27 | -41 | – | – | – | – |
| NCCOP(=O)(O)OCCCNC(=O)COc1ccc(Oc2ccc(Cl)cc2)cc1 [(7), 3-[4-(4'-chlorophenoxy)phenoxyacetylamino]propylphosphoryl ethanolamine] | 64 | 52 | – | – | – | – | – | – | – | – | – | – | – | – | – | – | – | -19 | 0 | -6 mmHg | Changes of blood pressure after drug withdrawal (renal hypertensive rats [2]; 2nd day after withdrawal): -11 mmHg; Changes of blood pressure (renal hypertensive rats [2]; [5]): -3 mmHg; Changes of blood pressure (renal hypertensive rats [2]; [6]): -10 mmHg; Changes of blood pressure after drug withdrawal (renal hypertensive rats [2]; 3rd day after withdrawal): -5 mmHg; Changes of blood pressure (renal hypertensive rats [2]; [7]): -3 mmHg; Changes of blood pressure (renal hypertensive rats [2]; [8]): -18 mmHg; Changes of blood pressure after drug withdrawal (renal hypertensive rats [2]; 4th day after withdrawal): -5 mmHg; Changes of blood pressure (renal hypertensive rats [2]; [9]): -10 mmHg; Changes of blood pressure (renal hypertensive rats [2]; [10]): -19 mmHg; Changes of blood pressure after drug withdrawal (renal hypertensive rats [2]; 5th day after withdrawal): -3 mmHg; Changes of blood pressure (renal hypertensive rats [2]; [11]): -10 mmHg; Changes of blood pressure (renal hypertensive rats [2]; [12]): -21 mmHg; Changes of blood pressure after drug withdrawal (renal hypertensive rats [2]; 6th day after withdrawal): -1 mmHg; Changes of blood pressure (renal hypertensive rats [2]; [13]): -11 mmHg; Changes of blood pressure (renal hypertensive rats [2]; [14]): -25 mmHg; Changes of blood pressure (renal hypertensive rats [2]; [15]): -18 mmHg; Changes of blood pressure (renal hypertensive rats [2]; [16]): -28 mmHg |
| CCC=CCC=CCC=CCCCCCCCC(=O)NCCOP(=O)(O)OCCN [(1), 2-(Octadeca-9,12,15-trienoylamino)ethylphosphoryl ethanolamine] | 61 | 50 | -21 | 0 | -17 | -13 | -6 | -33 | -4 | -8 | -35 | -16 | -37 | -20 | -35 | -24 | -35 | – | – | – | – |
| CCCCCC=CCC=CCCCCCCCC(=O)NCCOP(=O)(O)OCCN [(3), 2-(Octadeca-9,12-dienoylamino)ethylphosphoryl ethanolamine] | 25 | 21 | -39 | 0 | -12 | -8 | -1 | -9 | -1 | -8 | -17 | -23 | -38 | -27 | -39 | -35 | -48 | – | – | – | – |
| CC(Oc1ccc(Oc2ccc(Cl)cc2)cc1)C(=O)NCCCOP(=O)(O)OCCN (stereo not drawn) [(8), 3-{α-[4-(4'-chlorophenoxy)phenoxy]propionylamino} propylphosphoryl ethanolamine] | 67 | 51 | – | – | – | – | – | – | – | – | – | – | – | – | – | – | – | -22 | 0 | +4 mmHg | Changes of blood pressure after drug withdrawal (renal hypertensive rats [2]; 2nd day after withdrawal): -12 mmHg; Changes of blood pressure (renal hypertensive rats [2]; [5]): +5 mmHg; Changes of blood pressure (renal hypertensive rats [2]; [6]): -1 mmHg; Changes of blood pressure after drug withdrawal (renal hypertensive rats [2]; 3rd day after withdrawal): -5 mmHg; Changes of blood pressure (renal hypertensive rats [2]; [7]): -6 mmHg; Changes of blood pressure (renal hypertensive rats [2]; [8]): -13 mmHg; Changes of blood pressure after drug withdrawal (renal hypertensive rats [2]; 4th day after withdrawal): +2 mmHg; Changes of blood pressure (renal hypertensive rats [2]; [9]): -10 mmHg; Changes of blood pressure (renal hypertensive rats [2]; [10]): -16 mmHg; Changes of blood pressure after drug withdrawal (renal hypertensive rats [2]; 5th day after withdrawal): +1 mmHg; Changes of blood pressure (renal hypertensive rats [2]; [11]): -10 mmHg; Changes of blood pressure (renal hypertensive rats [2]; [12]): -16 mmHg; Changes of blood pressure after drug withdrawal (renal hypertensive rats [2]; 6th day after withdrawal): +1 mmHg; Changes of blood pressure (renal hypertensive rats [2]; [13]): -9 mmHg; Changes of blood pressure (renal hypertensive rats [2]; [14]): -23 mmHg; Changes of blood pressure (renal hypertensive rats [2]; [15]): -13 mmHg; Changes of blood pressure (renal hypertensive rats [2]; [16]): -25 mmHg |
